Measured values from patent publication US5206135A, “Use of the oxygenase activity of acetolactate synthase for herbicide detection” (E. I. Du Pont de Nemours and Company, priority 1990, dated 1993).
Values belong to the molecule of their own block, whether it stands above or below them.

Experiments:
Type in all cases: biochemical
[1] = biological target: T1, acetolactate synthase (Escherichia coli, UniProt P0DP90); assay: Oxygenase activity of acetolactate synthase with different substrates (oxygen-sensitive electrode)
T1 sequence (P0DP90 1-548): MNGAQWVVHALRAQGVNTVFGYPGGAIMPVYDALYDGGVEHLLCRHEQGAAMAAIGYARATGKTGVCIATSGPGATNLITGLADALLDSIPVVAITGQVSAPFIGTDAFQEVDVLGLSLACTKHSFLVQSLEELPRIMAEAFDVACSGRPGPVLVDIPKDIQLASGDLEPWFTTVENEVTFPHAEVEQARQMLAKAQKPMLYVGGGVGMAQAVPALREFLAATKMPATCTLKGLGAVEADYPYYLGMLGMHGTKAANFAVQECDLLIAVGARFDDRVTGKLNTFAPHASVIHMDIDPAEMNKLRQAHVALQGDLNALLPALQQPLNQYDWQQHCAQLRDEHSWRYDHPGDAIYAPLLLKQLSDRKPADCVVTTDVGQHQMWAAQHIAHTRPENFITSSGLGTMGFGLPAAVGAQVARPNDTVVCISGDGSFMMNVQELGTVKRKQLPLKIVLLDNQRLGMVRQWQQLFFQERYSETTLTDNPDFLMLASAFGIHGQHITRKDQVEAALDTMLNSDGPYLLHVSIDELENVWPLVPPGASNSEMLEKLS
T1 sequence (P0ADG1 1-87 partner): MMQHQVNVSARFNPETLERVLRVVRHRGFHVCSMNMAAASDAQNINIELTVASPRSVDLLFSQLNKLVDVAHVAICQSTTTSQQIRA
Method: (§1) To a 1 ml solution containing 0.1 M tricine-NaOH, pH 8, 10 mM MgCl2, 0.1 mM thiamine pyrophosphate, and 0.1 mM flavin adenine dinucleotide were added various concentrations of pyruvate (10 μM to 10 mM), α-keto-butyrate (10 μM to 80 mM), or acetolactate (0.15 to 5.5 mM). After allowing the solution to equilibrate with air (21 % O2), the level of dissolved oxygen was monitored by use of a commercially available oxygen-sensitive electrode (Hansatech) and polarographic electronics as described by Sweet et al. (Analytical Biochemistry 107:337 (1980)). In the absence of further additions, negligible oxygen was consumed over a 30 minute period. To initiate the consumption of oxygen, 20 μl of a 2 mg/ml stock solution of acetolactate synthase was added if pyruvate or α-acetolactate were used as substrate, or 5 μl of a 49 mg/ml stock solution of acetolactate synthase was added if α-ketobutyrate was used as substrate. The limiting rate of oxygen consumption at saturating concentrations of pyruvate, α-ketobutyrate, or α-acetolactate are illustrated in Table 1. The concentrations of α-acetolactate or α-ketobutyrate that gave half of the maximum rate (the Michaelis constant) were 1.4 mM and 32 μM, respectively.

[2] = biological target: T1, acetolactate synthase; assay: Sensitivity of the oxygenase activity of acetolactate synthase to herbicides (oxygen-sensitive electrode); settings: 100 μM pyruvate as substrate; rate of oxygen consumption; pH 8; read-out: Concentration that Gives 50% Inhibition
Method: as §1, with “The concentrations of α-acetolactate or α-ketobutyrate that gave half of the maximum rate (the Michaelis constant) were 1.4 mM and 32 μM, respectively.” left out
Assays were conducted as described under Examples 1-3, except that 100 μM pyruvate was used as substrate. […] These values are similar to previously reported values (Schloss et al. Nature 331:360 (1988)) for inhibition of the enzyme monitored by use of the known acetolactate-forming reaction.

[3] = substrate: CC(=O)C(C)(O)C(=O)O; assay: Oxygenase activity of acetolactate synthase with different substrates (oxygen-sensitive electrode); settings: other: oxygen consumption, pH 8, air-equilibrated
Method: as §1

[4] = substrate: CCC(=O)C(=O)O; assay: as above; settings: other: oxygen consumption, pH 8, air-equilibrated
Method: as §1

Km ([1]; oxygen consumption, pH 8, air-equilibrated, read-out: Concentration that gave half of the maximum rate (the Michaelis constant)): < 10 µM
Molecule: CC(=O)C(=O)O [Pyruvate]

Molecule: COc1nc(C)nc(NC(=O)NS(=O)(=O)c2ccccc2Cl)n1 [chlorsulfuron]
IC50 [2]: 500 nM

Molecule: COC(=O)c1ccccc1S(=O)(=O)NC(=O)Nc1nc(C)cc(C)n1 [sulfometuron methyl]
IC50 [2]: 1000 nM

Maximum rate (μmoles of oxygen consumed/mg enzyme/min) ([1]; limiting rate of oxygen consumption at saturating substrate, 0.1 M tricine-NaOH pH 8, air-equilibrated (21 % O2)): 0.20 μmoles of oxygen consumed/mg e
Molecule: CC(=O)C(C)(O)C(=O)O (stereo not drawn) [α-Acetolactate]

B1: acetolactate synthase (Escherichia coli K-12) (protein)
chain: MNGAQWVVHALRAQGVNTVFGYPGGAIMPVYDALYDGGVEHLLCRHEQGAAMAAIGYARATGKTGVCIATSGPGATNLITGLADALLDSIPVVAITGQVSAPFIGTDAFQEVDVLGLSLACTKHSFLVQSLEELPRIMAEAFDVACSGRPGPVLVDIPKDIQLASGDLEPWFTTVENEVTFPHAEVEQARQMLAKAQKPMLYVGGGVGMAQAVPALREFLAATKMPATCTLKGLGAVEADYPYYLGMLGMHGTKAANFAVQECDLLIAVGARFDDRVTGKLNTFAPHASVIHMDIDPAEMNKLRQAHVALQGDLNALLPALQQPLNQYDWQQHCAQLRDEHSWRYDHPGDAIYAPLLLKQLSDRKPADCVVTTDVGQHQMWAAQHIAHTRPENFITSSGLGTMGFGLPAAVGAQVARPNDTVVCISGDGSFMMNVQELGTVKRKQLPLKIVLLDNQRLGMVRQWQQLFFQERYSETTLTDNPDFLMLASAFGIHGQHITRKDQVEAALDTMLNSDGPYLLHVSIDELENVWPLVPPGASNSEMLEKLS
Km [3]: 1400 µM | Km [4]: 32 µM
